# From patent US10023565B2, “N,N′ substituted piperidinamine compounds, and preparation method and usage thereof” (Institute of Pharmacology and Toxicology Academy of …, priority 2013, dated 2018)
# Tests used:
# Assay type in all cases: cell-based
# SK/Lap^R1.0 = assay: Antitumor bioactivity evaluation, breast cancer cells (ATPlite); conditions: Homo sapiens; test sample 5 μM, 72 hours; read-out: Inhibitory Rate % SKLap^R1.0
# Summary of the method: (§1)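 ATPlite luminescence read-out after 72 h exposure at 37 °C; cell survival expressed as % of solvent-matched control RLU. Compound tested at 5 μM final, with or without 1 μM lapatinib, on cells plated 24 h earlier at 5000 per well.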
# SK-BR3 = assay: as above; conditions: Homo sapiens, SK-BR-3; test sample 5 μM, 72 hours; read-out: Inhibitory Rate % SK-BR3
# Summary of the method: as §1
# MDA-MB-361 = assay: as above; conditions: Homo sapiens, test sample 5 μM, 72 hours, read-out: Inhibitory Rate % MDA-MB-361
# Summary of the method: as §1
# MDA-MB-453 = assay: as above; conditions: Homo sapiens, test sample 5 μM, 72 hours, read-out: Inhibitory Rate % MDA-MB-453
# Summary of the method: as §1
# BT474 = assay: as above; conditions: Homo sapiens, BT-474
# Summary of the method: as §1
# COLO205 = assay: Extended test against tumor cell lines (ATPlite); conditions: COLO205 (colorectal cancer), 72 hours
# Method: (§2) The compounds of Examples 36/37/40/47/49 were used to carry out extended test against tumor cell lines, wherein 12 kinds of cells were selected, including liver cancer cells, gastric cancer cells, pancreatic cancer cells, colorectal cancer cells, lung cancer cells and normal cells, which were shown in Table 12:
# (§3) A 100 mm culture dish with overgrown adherent cells was digested with 1 ml 0.25% trypsin (GIBCO) at 37° C. for 5 min, and the reaction was terminated with 2 ml culture medium (containing 10% FBS, GIBCO). The cells were scattered and collected, after counting, diluted to 1×10^5 cells/ml, and seeded into a 96-well plate at 50 μl/well, 5000 cells/well, excluding the peripheral circle of wells in which no cell was added, but PBS was added, 54 wells in total, and then incubated at 37° C. for 24 hours for adhering.
# (§4) The test sample was diluted to final concentration of 4, 1, 0.25, 0.063, 0.016 μM, culture medium was filled in control well, 3 parellel wells were set for each concentration, 50 μl each well, followed by incubation at 37° C. for 72 hours.
# (§5) 3) Test after incubation at 37° C. for 72 hours: 50 μL of ATPlite kitsubstrate solution was added in each well, and vibrated for 3 min, followed by placing aside in darkness for 10 min, and then supernatant 100 μl/well was taken and placed on a luminescence test plate; the luminescence test plate that has been fully incubated was placed in a luminescence test instrument, to read luminescence value.
# (§6) Cell survival rate (%)=Experimental group RLU/control group RLU×100%. The experimental data were subjected to data analysis and processing by utilizing GraphPad software.
# AsPC-1 = assay: Extended test against tumor cell lines (ATPlite); conditions: AsPC-1 (pancreatic cancer), 72 hours
# Method: as §2, §3, §4, §5, §6
# [1] = tested on: WI-38 (human embryonic lung fibroblast); assay: Extended test against tumor cell lines (ATPlite); conditions: WI-38 (normal cells), 72 hours
# Method: as §2, §3, §4, §5, §6
# HepG2 = assay: Extended test against tumor cell lines (ATPlite); conditions: HepG2 (liver cancer), 72 hours
# Method: as §2, §3, §4, §5, §6
# Huh-7 = assay: Extended test against tumor cell lines (ATPlite); conditions: Huh-7 (liver cancer), 72 hours
# Method: as §2, §3, §4, §5, §6
# BGC823 = assay: Extended test against tumor cell lines (ATPlite); conditions: BGC823 (gastric cancer), 72 hours
# Method: as §2, §3, §4, §5, §6
# A549 = assay: Extended test against tumor cell lines (ATPlite); conditions: A549 (lung cancer), 72 hours
# Method: as §2, §3, §4, §5, §6
# [2] = tested on: six human breast cancer cell strains; assay: Antitumor activity evaluation, statements on the whole panel; conditions: compound alone
# Description: In antitumor activity evaluation, six human breast cancer cell strains are selected, including BT474, SK-BR3 which are human breast cancer cell strains sensitive to lapatinib, BT/Lap^R1.0, SK/Lap^R1.0 which are human breast cancer cell strains with secondary resistance to lapatinib, MDA-MB-361, MDA-MB-453 which are human breast cancer cell strains with natural resistance tolapatinib.
# Antitumor bioactivity evaluation of the compounds of Examples according to the method described below
# as §3, with “Cells plating: a” for “A”, “60” for “54”
# Addition of the compound and lapatinib: the test sample was diluted to a final concentration of 5 μM, and the culture medium with the corresponding compound solvent concentration was filled in the control well, the compound solvent concentration was kept consistent in each well, 5 parellel wells were set for each concentration, 25 μl each well, 25 μl culture medium (in combined group, 25 μl lapatinib was added till a final concentration of 1 μM) supplemented, followed by incubation at 37° C. for 72 hours.
# as §5, with “Test” for “3) Test”, “ATPlite kit substrate” for “ATPlite kitsubstrate”, “on aluminescence” for “on a luminescence”
# 1. Cell survival rate (%)=Experimental group RLU/control group RLU×100%. The experimental data were subjected to data analysis and processing by utilizing GraphPad software.
# [3] = tested on: tumor cells and normal cells (12 kinds of cells); assay: Extended test against tumor cell lines, statements on the whole panel
# Method: as §2, §3, §4, §5, §6
smiles,measurement,setting,value
"CSc1nccc(N2CCC(N(C)Cc3ccccc3Cl)CC2)n1 [Example 47, N-methyl-N-(2-chlorobenzyl)-N-[1-(2-methylthiopyrimidin-4-yl)piperidin-4-yl]amine]",inhibition at 5 µM,SK/Lap^R1.0,16.6%
same,inhibition at 5 µM,SK-BR3,31.7%
same,inhibition at 5 µM,MDA-MB-361,27.7%
same,inhibition at 5 µM,MDA-MB-453,66.2%
same,IC50,BT474,1990 nM
same,inhibition at 5 µM,"BT474; test sample 5 μM, 72 hours, read-out: Inhibitory Rate % BT474",60.4%
same,Survival rate,COLO205; 0.016 μM,98.2%
same,Survival rate,COLO205; 0.063 μM,96.7%
same,Survival rate,COLO205; 0.25 μM,97.9%
same,Survival rate,COLO205; 1 μM,96.1%
same,Survival rate,COLO205; 4 μM,23.3%
same,Survival rate,AsPC-1; 0.016 μM,100.2%
same,Survival rate,AsPC-1; 0.063 μM,94.7%
same,Survival rate,AsPC-1; 0.25 μM,92.8%
same,Survival rate,AsPC-1; 1 μM,85.3%
same,Survival rate,AsPC-1; 4 μM,53.6%
same,Survival rate,[1]; 0.016 μM,102.1%
same,Survival rate,[1]; 0.063 μM,99.7%
same,Survival rate,[1]; 0.25 μM,100.4%
same,Survival rate,[1]; 1 μM,95.1%
same,Survival rate,[1]; 4 μM,82.1%
same,Survival rate,HepG2; 0.016 μM,103.1%
same,Survival rate,HepG2; 0.063 μM,102.7%
same,Survival rate,HepG2; 0.25 μM,96%
same,Survival rate,HepG2; 1 μM,71.4%
same,Survival rate,HepG2; 4 μM,7.3%
same,Survival rate,Huh-7; 0.016 μM,91.1%
same,Survival rate,Huh-7; 0.063 μM,88.3%
same,Survival rate,Huh-7; 0.25 μM,81.4%
same,Survival rate,Huh-7; 1 μM,65.9%
same,Survival rate,Huh-7; 4 μM,16.7%
same,Survival rate,BGC823; 0.016 μM,99.8%
same,Survival rate,BGC823; 0.063 μM,100.6%
same,Survival rate,BGC823; 0.25 μM,98.4%
same,Survival rate,BGC823; 1 μM,84.3%
same,Survival rate,BGC823; 4 μM,24.5%
same,Survival rate,A549; 0.016 μM,98.1%
same,Survival rate,A549; 0.063 μM,95.3%
same,Survival rate,A549; 0.25 μM,93%
same,Survival rate,A549; 1 μM,88.7%
same,Survival rate,A549; 4 μM,45.9%
same,growth inhibition to the six human breast cancer cell strains,[2],relatively significant growth inhibition
same,inhibition of tumor cells versus cytotoxicity to normal cells,"[3]; 12 kinds of cells, 0.016-4 μM, 72 hours","slightly stronger inhibition to liver cancer than that to other tumor cells, and exhibited cytotoxicity to normal cells lower than inhibition to tumor cells"
same,effect compared with the compounds of other Examples,[3]; Examples 36/37/40/47/49 compared,effect superior to that of the compounds of other Examples
